Results on 21 compounds are retold here after US20220363665A1, “QUINOLINE COMPOUNDS FOR THE TREATMENT OF AUTOIMMUNE DISEASE” (Hoffmann-La Roche Inc., priority 2019, published 2022).

The target of one series is T1, human TLR8 (Homo sapiens, UniProt Q9NR97).
T1 construct: host or cells: HEK293 (HEK-Blue hTLR8)
T1 sequence (Q9NR97 27-1041): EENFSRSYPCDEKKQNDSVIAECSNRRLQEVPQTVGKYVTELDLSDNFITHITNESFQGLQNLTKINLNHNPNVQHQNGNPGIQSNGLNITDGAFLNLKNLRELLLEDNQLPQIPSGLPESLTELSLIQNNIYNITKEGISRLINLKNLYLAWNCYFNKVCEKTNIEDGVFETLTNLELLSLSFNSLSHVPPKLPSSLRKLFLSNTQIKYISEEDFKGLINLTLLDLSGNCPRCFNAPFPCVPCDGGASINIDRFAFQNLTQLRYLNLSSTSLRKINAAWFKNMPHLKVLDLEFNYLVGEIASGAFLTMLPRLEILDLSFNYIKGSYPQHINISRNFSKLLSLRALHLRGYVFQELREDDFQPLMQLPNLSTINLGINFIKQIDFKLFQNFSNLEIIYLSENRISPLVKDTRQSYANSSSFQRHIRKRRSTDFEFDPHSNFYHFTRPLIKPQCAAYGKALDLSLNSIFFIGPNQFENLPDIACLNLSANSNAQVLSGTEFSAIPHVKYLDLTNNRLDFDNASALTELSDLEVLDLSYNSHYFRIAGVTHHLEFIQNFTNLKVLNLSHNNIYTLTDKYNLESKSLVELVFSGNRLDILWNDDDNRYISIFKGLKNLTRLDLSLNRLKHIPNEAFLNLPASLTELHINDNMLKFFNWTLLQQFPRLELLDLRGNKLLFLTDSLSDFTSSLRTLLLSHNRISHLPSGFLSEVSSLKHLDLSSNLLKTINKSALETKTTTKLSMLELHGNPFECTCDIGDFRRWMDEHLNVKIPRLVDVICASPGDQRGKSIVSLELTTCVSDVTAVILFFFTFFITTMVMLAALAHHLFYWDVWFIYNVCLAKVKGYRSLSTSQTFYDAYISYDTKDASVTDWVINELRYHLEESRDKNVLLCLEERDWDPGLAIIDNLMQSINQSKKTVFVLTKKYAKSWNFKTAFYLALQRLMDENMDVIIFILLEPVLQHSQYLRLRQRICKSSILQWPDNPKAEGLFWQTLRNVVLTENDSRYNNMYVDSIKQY
Briefly: HEK293-Blue-hTLR-8 cells assay (SEAP reporter, R848 stimulation). The format is cell-based. The following applies: HEK293-Blue-hTLR8 cells, R848, 20 hrs. As to the method:
The following tests were carried out in order to determine the activity of the compounds of formula (I) in HEK293-Blue-hTLR-7/8/9 cells assay.
HEK293-Blue-hTLR-8 Cells Assay:
A stable HEK293-Blue-hTLR-8 cell line was purchased from InvivoGen (Cat. #: hkb-htlr8, San Diego, Calif., USA). These cells were originally designed for studying the stimulation of human TLR8 by monitoring the activation of NF-κB. A SEAP (secreted embryonic alkaline phosphatase) reporter gene was placed under the control of the IFN-β minimal promoter fused to five NF-κB and AP-1-binding sites. The SEAP was induced by activating NF-κB and AP-1 via stimulating HEK-Blue hTLR8 cells with TLR8 ligands. Therefore the reporter expression was declined by TLR8 antagonist under the stimulation of a ligand, such as R848, for incubation of 20 hrs. The cell culture supernatant SEAP reporter activity was determined using QUANTI-Blue™ kit (Cat #. rep-qbl, Invivogen, San Diego, Calif., USA) at a wavelength of 640 nm, a detection medium that turns purple or blue in the presence of alkaline phosphatase.
HEK293-Blue-hTLR8 cells were incubated at a density of 250,000˜450,000 cells/mL in a volume of 170 μL in a 96-well plate in Dulbecco's Modified Eagle's medium (DMEM) containing 4.5 g/L glucose, 50 U/mL penicillin, […], […], 2 mM L-glutamine, 10% (v/v) heat-inactivated fetal bovine serum with addition of 20 μL test compound in a serial dilution in the presence of final DMSO at 1% and 10 μL of 60 μM R848 in above DMEM, perform incubation under 37° C. in a CO2 incubator for 20 hrs. Then 20 μL of the supernatant from each well was incubated with 180 μL Quanti-blue substrate solution at 37° C. for 2 hrs and the absorbance was read at 620˜655 nm using a spectrophotometer. The signalling pathway that TLR8 activation leads to downstream NF-KB activation has been widely accepted, and therefore similar reporter assay was modified for evaluating TLR8 antagonist.

Another series is described as follows: LYSA solubility assay. In kind it is physicochemical. The following applies: for solubility thermodynamic: 0.05 M phosphate buffer, pH 6.5, aqueous buffer, thermodynamic from solid; for LYSA: 0.05 M phosphate buffer (pH 6.5). The protocol: LYSA study is used to determine the aqueous solubility of tested compounds. Samples are prepared in duplicate from 10 mM DMSO stock solution. After evaporation of DMSO with a centrifugal vacuum evaporator, compounds are dissolved in a 0.05 M phosphate buffer (pH 6.5), stirred for one hr and shaken for two hrs. After one night, the solutions are filtered using a microtiter filter plate. Then the filtrate and its 1/10 dilution are analyzed by HPLC-UV. In addition, a four-point calibration curve is prepared from the 10 mM stock solutions and used for the solubility determination of the compounds. The results are in μg/mL. In case the percentage of sample measured in solution after evaporation divided by the calculated maximum of sample amount is bigger than 80%, the solubility is reported as bigger than this value.

≈ marks a conversion by molar mass, not a printed value.

Regarding `C[C@@H]1CN(c2ccc(C(F)(F)F)c3ncccc23)C[C@H](C(=O)N2CCC(N)CC2)O1` [Example 12, (4-amino-1-piperidyl)-[(2R,6R)-6-methyl-4-[8-(trifluoromethyl)-5-quinolyl]morpholin-2-yl]methanone], inhibition on human TLR8 was half-maximal at 5 nM (IC50). In the series “LYSA solubility assay”, the solubility (thermodynamic) was above 665 µg/mL.
Turning to `CC(NC(=O)[C@H]1CN(c2ccc(C(F)(F)F)c3ncccc23)C[C@@H](C)O1)C1CN(C)CCO1` (single isomer, unassigned) [Example 35B], on human TLR8, the IC50 was below 3 nM. The compound also came in with an LYSA in the series “LYSA solubility assay” above 625.0 µg/mL.
On the same counts, the results for `C[C@@H]1CN(c2ccc(C(F)(F)F)c3ncccc23)C[C@H](C(=O)NC2CC3CNCC32)O1` (single isomer, unassigned) [Example 49B] are 9 nM and above 690.0 µg/mL.
On human TLR8, `CC(NC(=O)[C@H]1CN(c2ccc(C(F)(F)F)c3ncccc23)C[C@@H](C)O1)C1CN(C)CCO1` (single isomer, unassigned) [Example 35A] showed an IC50 of 6 nM. The same compound showed a solubility (thermodynamic) in “LYSA solubility assay” above 600 µg/mL.
For `C[C@H]1C[C@@H](N)CN(c2ccc(C(F)(F)F)c3ncccc23)C1` [Example 1, (3R,5S)-5-methyl-1-[8-(trifluoromethyl)-5-quinolyl]piperidin-3-amine], the IC50 against human TLR8 is below 3 nM.
At human TLR8, `C[C@@H]1CN(c2ccc([N+](=O)[O-])c3ncccc23)C[C@H](C(=O)N[C@@H]2CNC[C@@H]2F)O1` [Example 19, cis-(2R,6R)-N-[41-fluoropyrrolidin-3-yl]-6-methyl-4-(8-nitro-5-quinolyl)morpholine-2-carboxamide] came in with an IC50 below 3 nM. Further, in the series “LYSA solubility assay”, the thermodynamic solubility was above 510 µg/mL.
On the same counts, the results for `C[C@@H]1CN(c2ccc(C(F)(F)F)c3ncccc23)C[C@H](C(=O)NC2CCCNCC2)O1` (stereo partly drawn) [Example 8, (2R,6R)-N-(azepan-4-yl)-6-methyl-4-[8-(trifluoromethyl)-5-quinolyl]morpholine-2-carboxamide] are below 3 nM and above 680 µg/mL.
The like results for `C[C@@H]1CN(c2ccc([N+](=O)[O-])c3ncccc23)C[C@H](C(=O)NC2CCN(C)CC2)O1` [Example 20, (2R,6R)-6-methyl-N-(1-methyl-4-piperidyl)-4-(8-nitro-5-quinolyl)morpholine-2-carboxamide] were, in that order, below 3 nM and above 515 µg/mL.
In turn, `C[C@@H]1CN(c2ccc(C(F)(F)F)c3ncccc23)C[C@H](C(=O)NC2CC3CCC(C2)N3)O1` (single isomer, unassigned) [Example 47A] returned an IC50 at human TLR8 below 3 nM. In “LYSA solubility assay”, this compound had a thermodynamic solubility above 620 µg/mL.
On the same counts, the results for `C[C@@H]1CN(c2ccc(I)c3ncccc23)C[C@H](C(=O)NCC2CN(C)CCO2)O1` (stereo partly drawn) [Example 39, (2R,6R)-4-(8-iodo-5-quinolyl)-6-methyl-N-[(4-methylmorpholin-2-yl)methyl]morpholine-2-carboxamide] are below 3 nM and above 625 µg/mL.
On human TLR8, `C[C@@H]1CN(c2ccc(C(F)(F)F)c3ncccc23)C[C@H](C(=O)NC2CC3CNCC(C3)C2)O1` (stereo partly drawn) [Example 37, (2R,6R)-N-(3-azabicyclo[3.3.1]nonan-7-yl)-6-methyl-4-[8-(trifluoromethyl)-5-quinolyl]morpholine-2-carboxamide] displayed an IC50 of 6 nM. Moreover, in “LYSA solubility assay”, the thermodynamic solubility is above 660 µg/mL.
The like results for `C[C@@H]1CN(c2ccc(C(F)(F)F)c3ncccc23)C[C@H](C(=O)NCC2CNCC2(F)F)O1` (stereo partly drawn) [Example 29, (2R,6R)-N-[(4,4-difluoropyrrolidin-3-yl)methyl]-6-methyl-4-[8-(trifluoromethyl)-5-quinolyl]morpholine-2-carboxamide] were, in that order, 14 nM and 565 µg/mL (≈ 1230 µM).
The like results for `C[C@@H]1CN(c2ccc(C(F)(F)F)c3ncccc23)C[C@H](C(=O)NCCN2CCOCC2)O1` [Example 13, (2R,6R)-6-methyl-N-(2-morpholinoethyl)-4-[8-(trifluoromethyl)-5-quinolyl]morpholine-2-carboxamide] were, in that order, 52 nM and above 725 µg/mL.
The like results for `Cc1ccc(N2C[C@@H](C)O[C@@H](C(=O)NC3CCN(C)CC3)C2)c2cccnc12` [Example 16, (2R,6R)-6-methyl-N-(1-methyl-4-piperidyl)-4-(8-methyl-5-quinolyl)morpholine-2-carboxamide] were, in that order, 8 nM and above 450 µg/mL.
For the compound `C[C@@H]1CN(c2ccc(C(F)(F)F)c3ncccc23)C[C@H](C(=O)N2CCC(N)C2)O1` (stereo partly drawn) [Example 10, (3-aminopyrrolidin-1-yl)-[(2R,6R)-6-methyl-4-[8-(trifluoromethyl)-5-quinolyl]morpholin-2-yl]methanone], the IC50 on human TLR8 was 29 nM. The thermodynamic solubility in “LYSA solubility assay” was above 655 µg/mL.
The like results for `C[C@@H]1CN(c2ccc(C(F)(F)F)c3ncccc23)C[C@H](C(=O)NC2C3CCC2CNC3)O1` (stereo partly drawn) [Example 31, (2R,6R)-N-(3-azabicyclo[3.2.1]octan-8-yl)-6-methyl-4-[8-(trifluoromethyl)-5-quinolyl]morpholine-2-carboxamide] were, in that order, 9 nM and above 597 µg/mL.
The compound `C[C@@H]1CN(c2ccc(C(F)(F)F)c3ncccc23)C[C@H](C(=O)NC2CC3CCC(C2)N3)O1` (single isomer, unassigned) [Example 47B] displayed an IC50 against human TLR8 below 3 nM. Further, in “LYSA solubility assay”, the LYSA was above 605.0 µg/mL.
Take `C[C@H]1C[C@@H](N)CN(c2ccc(Cl)c3ncccc23)C1` [Example 23, (3R,5S)-1-(8-chloro-5-quinolyl)-5-methyl-piperidin-3-amine]: the IC50 against human TLR8 came to 4 nM. The solubility (thermodynamic) in “LYSA solubility assay” was above 315 µg/mL.
The like results for `C[C@@H]1CN(c2ccc(Cl)c3ncccc23)C[C@H](C(=O)NCC2CN(C)CCO2)O1` (stereo partly drawn) [Example 26, (2R,6R)-4-(8-chloro-5-quinolyl)-6-methyl-N-[(4-methylmorpholin-2-yl)methyl]morpholine-2-carboxamide] were, in that order, below 3 nM and above 520 µg/mL.
On the same counts, the results for `C[C@@H]1CN(c2ccc(C(F)(F)F)c3ncccc23)C[C@H](C(=O)NC2CC3CCCC(C2)N3)O1` (single isomer, unassigned) [Example 34A] are below 3 nM and above 620 µg/mL.
On to `Cc1ccc(N2C[C@@H](C)C[C@@H](N)C2)c2cccnc12` [Example 15, (3R,5S)-5-methyl-1-(8-methyl-5-quinolyl)piperidin-3-amine], for which the IC50 against human TLR8 was 15 nM.

Broadly, the IC50 is the concentration needed to halve the response being measured. A word on the solubility (thermodynamic): it is the concentration in solution at equilibrium with solid.
